Test results from the NIST ThermoML archive (doi:10.1016/j.jct.2011.07.008).

Assay: mn = molality of the nth substance listed, in mol/kg
Conditions: 101 kPa, Liquid; for viscosity: Capillary tube (Ostwald / Ubbelohde) method

O [water] + CCOCCOCCO
m2 = 0
Conditions | viscosity [mPa·s]
275.15 K | 1.674
283.15 K | 1.31

m2 = 0
Conditions | mass density [kg/m3]
275.15 K, Pycnometric method | 999.94
283.15 K, Buoyancy - hydrostatic balance with magnetic suspension - one sinker | 999.7

COCCO [2-methoxyethan-1-ol] + O
Conditions | viscosity [mPa·s]
275.15 K, m1 = 0.0097 | 1.006
275.15 K, m1 = 0.0205 | 1.011
275.15 K, m1 = 0.0313 | 1.016
275.15 K, m1 = 0.0393 | 1.02
275.15 K, m1 = 0.0487 | 1.023
275.15 K, m1 = 0.0638 | 1.028
275.15 K, m1 = 0.0719 | 1.03
275.15 K, m1 = 0.0813 | 1.032
275.15 K, m1 = 0.0905 | 1.034
275.15 K, m1 = 0.102 | 1.035
283.15 K, m1 = 0.0104 | 1.001
283.15 K, m1 = 0.0193 | 1.002
283.15 K, m1 = 0.0326 | 1.005
283.15 K, m1 = 0.0417 | 1.006
283.15 K, m1 = 0.0492 | 1.008
283.15 K, m1 = 0.0599 | 1.011
283.15 K, m1 = 0.0698 | 1.013
283.15 K, m1 = 0.0804 | 1.016
283.15 K, m1 = 0.0893 | 1.019
283.15 K, m1 = 0.0901 | 1.019
283.15 K, m1 = 0.1 | 1.023
283.15 K, m1 = 0.1013 | 1.023

Conditions | mass density [kg/m3]
275.15 K, Pycnometric method, m1 = 0.0097 | 999.96
275.15 K, Pycnometric method, m1 = 0.0205 | 999.99
275.15 K, Pycnometric method, m1 = 0.0313 | 999.99
275.15 K, Pycnometric method, m1 = 0.0393 | 1000.02
275.15 K, Pycnometric method, m1 = 0.0487 | 1000.07
275.15 K, Pycnometric method, m1 = 0.0638 | 1000.09
275.15 K, Pycnometric method, m1 = 0.0719 | 1000.1
275.15 K, Pycnometric method, m1 = 0.0813 | 1000.12
275.15 K, Pycnometric method, m1 = 0.0905 | 1000.12
275.15 K, Pycnometric method, m1 = 0.102 | 1000.17
283.15 K, Buoyancy - hydrostatic balance with magnetic suspension - one sinker, m1 = 0.0104 | 999.73
283.15 K, Buoyancy - hydrostatic balance with magnetic suspension - one sinker, m1 = 0.0193 | 999.73
283.15 K, Buoyancy - hydrostatic balance with magnetic suspension - one sinker, m1 = 0.0326 | 999.76
283.15 K, Buoyancy - hydrostatic balance with magnetic suspension - one sinker, m1 = 0.0417 | 999.81
283.15 K, Buoyancy - hydrostatic balance with magnetic suspension - one sinker, m1 = 0.0492 | 999.79
283.15 K, Buoyancy - hydrostatic balance with magnetic suspension - one sinker, m1 = 0.0599 | 999.88
283.15 K, Buoyancy - hydrostatic balance with magnetic suspension - one sinker, m1 = 0.0698 | 999.93
283.15 K, Buoyancy - hydrostatic balance with magnetic suspension - one sinker, m1 = 0.0804 | 999.91
283.15 K, Buoyancy - hydrostatic balance with magnetic suspension - one sinker, m1 = 0.0893 | 999.94
283.15 K, Buoyancy - hydrostatic balance with magnetic suspension - one sinker, m1 = 0.0901 | 999.94
283.15 K, Buoyancy - hydrostatic balance with magnetic suspension - one sinker, m1 = 0.1 | 999.95
283.15 K, Buoyancy - hydrostatic balance with magnetic suspension - one sinker, m1 = 0.1013 | 999.97

COCCOCCO [2-(2-methoxyethoxy)ethanol] + O
Conditions | viscosity [mPa·s]
275.15 K, m1 = 0.0099 | 1.004
275.15 K, m1 = 0.0209 | 1.009
275.15 K, m1 = 0.0309 | 1.014
275.15 K, m1 = 0.0396 | 1.018
275.15 K, m1 = 0.052 | 1.023
275.15 K, m1 = 0.061 | 1.028
275.15 K, m1 = 0.0706 | 1.032
275.15 K, m1 = 0.0799 | 1.037
275.15 K, m1 = 0.093 | 1.044
275.15 K, m1 = 0.1057 | 1.05
283.15 K, m1 = 0.0109 | 1.004
283.15 K, m1 = 0.0191 | 1.008
283.15 K, m1 = 0.0303 | 1.012
283.15 K, m1 = 0.0406 | 1.016
283.15 K, m1 = 0.0487 | 1.02
283.15 K, m1 = 0.0599 | 1.024
283.15 K, m1 = 0.0709 | 1.029
283.15 K, m1 = 0.0806 | 1.033
283.15 K, m1 = 0.09 | 1.037
283.15 K, m1 = 0.0901 | 1.037
283.15 K, m1 = 0.1009 | 1.041

Conditions | mass density [kg/m3]
275.15 K, Pycnometric method, m1 = 0.0099 | 1000.07
275.15 K, Pycnometric method, m1 = 0.0209 | 1000.18
275.15 K, Pycnometric method, m1 = 0.0309 | 1000.32
275.15 K, Pycnometric method, m1 = 0.0396 | 1000.42
275.15 K, Pycnometric method, m1 = 0.052 | 1000.56
275.15 K, Pycnometric method, m1 = 0.061 | 1000.66
275.15 K, Pycnometric method, m1 = 0.0706 | 1000.76
275.15 K, Pycnometric method, m1 = 0.0799 | 1000.86
275.15 K, Pycnometric method, m1 = 0.093 | 1000.98
275.15 K, Pycnometric method, m1 = 0.1057 | 1001.12
283.15 K, Buoyancy - hydrostatic balance with magnetic suspension - one sinker, m1 = 0.0109 | 999.8
283.15 K, Buoyancy - hydrostatic balance with magnetic suspension - one sinker, m1 = 0.0191 | 999.93
283.15 K, Buoyancy - hydrostatic balance with magnetic suspension - one sinker, m1 = 0.0303 | 1000.04
283.15 K, Buoyancy - hydrostatic balance with magnetic suspension - one sinker, m1 = 0.0406 | 1000.11
283.15 K, Buoyancy - hydrostatic balance with magnetic suspension - one sinker, m1 = 0.0487 | 1000.17
283.15 K, Buoyancy - hydrostatic balance with magnetic suspension - one sinker, m1 = 0.0599 | 1000.27
283.15 K, Buoyancy - hydrostatic balance with magnetic suspension - one sinker, m1 = 0.0709 | 1000.38
283.15 K, Buoyancy - hydrostatic balance with magnetic suspension - one sinker, m1 = 0.0806 | 1000.47
283.15 K, Buoyancy - hydrostatic balance with magnetic suspension - one sinker, m1 = 0.09 | 1000.56
283.15 K, Buoyancy - hydrostatic balance with magnetic suspension - one sinker, m1 = 0.0901 | 1000.59
283.15 K, Buoyancy - hydrostatic balance with magnetic suspension - one sinker, m1 = 0.1009 | 1000.68
